According to patent publication US4965280A, “Antifungal carbinols” (E. I. Du Pont de Nemours and Company, priority 1989, dated 1990):

Columns and labels:
G4646 CORN = experiment: Test D Corn and Sorghum Herbicide Test; type: in vivo, Zea mays
GIANT FOXTAIL = experiment: Test D; type: in vivo, Setaria faberii
BARNYARDGRASS = experiment: Test D; type: in vivo, Echinochloa crus-galli
Description: (§1) The Corn and Sorghum Herbicide Test included the following species in both the preemergence and postemergence evaluations:
(§2) Postemergence plantings were grown in Sassafras sandy loam soil. Corn and soybeans were grown in separate 25 cm diameter containers. Sorghum and the seven grass weed species were grown in two 18 cm diameter containers, 4 species per container. The seven broadleaf weed species were also grown in two 18 cm diameter containers, 4 species in one container, 3 species in the second container. One additional planting of corn in an 18 cm diameter container was made. The soil surface of this additional container of corn was covered with the absorbent, perlite, before spray treatment so that test chemicals would enter the plant only via the foliage. The plants were grown 10-21 days, dependent upon the species and then sprayed postemergence with the test chemicals dissolved in a nonpytotoxic solvent.
(§3) Preemergence plantings were grown in fertilized Tama silt loam soil. These plantings are identical to those described in the postemergence section, with the exception of the corn planting having perlite covering the soil surface. These plantings were made the day of or the day before spraying the test chemicals dissolved in a nonphytotoxic solvent.
(§4) Treated plants and controls were maintained in the greenhouse for 2 to 4 weeks. Visual planting response ratings were made on a percentage scale of 0 to 100 in comparison with a control where 0=no injury, and 100=death.

JOHNSONGRASS = experiment: Test D; type: in vivo, Sorghum halepense
G522 SORGHUM = experiment: Test D; type: in vivo, Sorghum bicolor
VELVETLEAF = experiment: Test D; type: in vivo, Abutilon theophrasti
Description: as §1, §2, §3, §4

LADY SMARTWEED = experiment: Test D; type: in vivo, Polygonum persicaris
Description: as §1, §2, §3, §4

REDROOT PIGWEED = experiment: Test D; type: in vivo, Amaranthus retroflexus
IVY MORNINGLORY = experiment: Test D; type: in vivo, Ipomoea hederacea

Measured: plant response

C=C(c1ccccc1Cl)C(O)(Cn1cncn1)c1ccc(Cl)cc1Cl (stereo not drawn) [Example 33, 2-(2,4-Dichlorophenyl)-3-(2-chlorophenyl)-1-(1H-1,2,4-triazol-1-yl)-3-buten-2-ol]
0%: G4646 CORN; POSTEMERGENCE 0250 GM/HA | G4646 CORN; POSTEMERGENCE 0500 GM/HA | G4646 CORN; POSTEMERGENCE 1000 GM/HA | G4646 CORN; PREEMERGENCE 0250 GM/HA | G4646 CORN; PREEMERGENCE 0500 GM/HA | G4646 CORN; PREEMERGENCE 1000 GM/HA | GIANT FOXTAIL; POSTEMERGENCE 0250 GM/HA | GIANT FOXTAIL; POSTEMERGENCE 0500 GM/HA | GIANT FOXTAIL; POSTEMERGENCE 1000 GM/HA | GIANT FOXTAIL; PREEMERGENCE 0250 GM/HA | GIANT FOXTAIL; PREEMERGENCE 0500 GM/HA | GIANT FOXTAIL; PREEMERGENCE 1000 GM/HA | BARNYARDGRASS; POSTEMERGENCE 0250 GM/HA | BARNYARDGRASS; POSTEMERGENCE 0500 GM/HA | BARNYARDGRASS; POSTEMERGENCE 1000 GM/HA | BARNYARDGRASS; PREEMERGENCE 0250 GM/HA | BARNYARDGRASS; PREEMERGENCE 0500 GM/HA | BARNYARDGRASS; PREEMERGENCE 1000 GM/HA | JOHNSONGRASS; POSTEMERGENCE 0250 GM/HA | JOHNSONGRASS; POSTEMERGENCE 0500 GM/HA | JOHNSONGRASS; POSTEMERGENCE 1000 GM/HA | JOHNSONGRASS; PREEMERGENCE 0250 GM/HA | JOHNSONGRASS; PREEMERGENCE 0500 GM/HA | JOHNSONGRASS; PREEMERGENCE 1000 GM/HA | G522 SORGHUM; POSTEMERGENCE 0250 GM/HA | G522 SORGHUM; POSTEMERGENCE 0500 GM/HA | G522 SORGHUM; POSTEMERGENCE 1000 GM/HA | G522 SORGHUM; PREEMERGENCE 0250 GM/HA | G522 SORGHUM; PREEMERGENCE 0500 GM/HA | G522 SORGHUM; PREEMERGENCE 1000 GM/HA | VELVETLEAF; POSTEMERGENCE 0250 GM/HA | VELVETLEAF; POSTEMERGENCE 0500 GM/HA | VELVETLEAF; POSTEMERGENCE 1000 GM/HA | VELVETLEAF; PREEMERGENCE 0250 GM/HA | VELVETLEAF; PREEMERGENCE 0500 GM/HA | VELVETLEAF; PREEMERGENCE 1000 GM/HA | LADY SMARTWEED; POSTEMERGENCE 0250 GM/HA | LADY SMARTWEED; POSTEMERGENCE 0500 GM/HA | LADY SMARTWEED; POSTEMERGENCE 1000 GM/HA | LADY SMARTWEED; PREEMERGENCE 0250 GM/HA | LADY SMARTWEED; PREEMERGENCE 0500 GM/HA | LADY SMARTWEED; PREEMERGENCE 1000 GM/HA | REDROOT PIGWEED; POSTEMERGENCE 0250 GM/HA | REDROOT PIGWEED; POSTEMERGENCE 0500 GM/HA | REDROOT PIGWEED; POSTEMERGENCE 1000 GM/HA | REDROOT PIGWEED; PREEMERGENCE 0250 GM/HA | REDROOT PIGWEED; PREEMERGENCE 0500 GM/HA | REDROOT PIGWEED; PREEMERGENCE 1000 GM/HA | IVY MORNINGLORY; POSTEMERGENCE 0250 GM/HA | IVY MORNINGLORY; POSTEMERGENCE 0500 GM/HA | IVY MORNINGLORY; POSTEMERGENCE 1000 GM/HA | IVY MORNINGLORY; PREEMERGENCE 0250 GM/HA | IVY MORNINGLORY; PREEMERGENCE 0500 GM/HA | IVY MORNINGLORY; PREEMERGENCE 1000 GM/HA
